Experimental data from ChEMBL document CHEMBL4130547, “Targeted Isolation of Monoterpene Indole Alkaloids from Palicourea sessilis” (J Nat Prod, 2017).

Assays:
[1] = target: Acetylcholinesterase (Electrophorus electricus) (UniProt O42275); test: Inhibition of Electrophorus electricus AChE at 50 uM using acetylthiocholine iodide as substrate measured after 10 mins by Ellman's method relative to control
Acetylcholinesterase = Acetylcholinesterase (Electrophorus electricus, UniProt O42275); test: Inhibition of Electrophorus electricus AChE using acetylthiocholine iodide as substrate measured during 6 mins by Ellman's method
Chain of Acetylcholinesterase (O42275 whole entry): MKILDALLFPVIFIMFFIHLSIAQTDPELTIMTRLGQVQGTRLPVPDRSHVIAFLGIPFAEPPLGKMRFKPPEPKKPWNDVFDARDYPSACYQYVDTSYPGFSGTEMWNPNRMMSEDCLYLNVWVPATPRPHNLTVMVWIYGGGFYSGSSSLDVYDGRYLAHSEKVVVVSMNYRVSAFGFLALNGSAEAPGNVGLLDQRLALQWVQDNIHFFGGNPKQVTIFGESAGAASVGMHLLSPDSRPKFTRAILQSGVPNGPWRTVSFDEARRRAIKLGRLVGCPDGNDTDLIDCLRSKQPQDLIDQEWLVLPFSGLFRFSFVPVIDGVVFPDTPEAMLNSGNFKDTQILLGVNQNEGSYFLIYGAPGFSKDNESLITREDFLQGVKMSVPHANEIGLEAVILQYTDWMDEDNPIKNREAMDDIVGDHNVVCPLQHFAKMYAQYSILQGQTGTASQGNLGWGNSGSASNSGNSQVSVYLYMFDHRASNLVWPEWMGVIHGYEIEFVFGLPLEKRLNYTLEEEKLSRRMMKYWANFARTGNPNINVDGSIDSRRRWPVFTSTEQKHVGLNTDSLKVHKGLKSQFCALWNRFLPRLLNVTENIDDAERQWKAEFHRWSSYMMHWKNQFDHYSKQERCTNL

Chain of Acetylcholinesterase (Electrophorus electricus) (O42275 24-633 limits assumed): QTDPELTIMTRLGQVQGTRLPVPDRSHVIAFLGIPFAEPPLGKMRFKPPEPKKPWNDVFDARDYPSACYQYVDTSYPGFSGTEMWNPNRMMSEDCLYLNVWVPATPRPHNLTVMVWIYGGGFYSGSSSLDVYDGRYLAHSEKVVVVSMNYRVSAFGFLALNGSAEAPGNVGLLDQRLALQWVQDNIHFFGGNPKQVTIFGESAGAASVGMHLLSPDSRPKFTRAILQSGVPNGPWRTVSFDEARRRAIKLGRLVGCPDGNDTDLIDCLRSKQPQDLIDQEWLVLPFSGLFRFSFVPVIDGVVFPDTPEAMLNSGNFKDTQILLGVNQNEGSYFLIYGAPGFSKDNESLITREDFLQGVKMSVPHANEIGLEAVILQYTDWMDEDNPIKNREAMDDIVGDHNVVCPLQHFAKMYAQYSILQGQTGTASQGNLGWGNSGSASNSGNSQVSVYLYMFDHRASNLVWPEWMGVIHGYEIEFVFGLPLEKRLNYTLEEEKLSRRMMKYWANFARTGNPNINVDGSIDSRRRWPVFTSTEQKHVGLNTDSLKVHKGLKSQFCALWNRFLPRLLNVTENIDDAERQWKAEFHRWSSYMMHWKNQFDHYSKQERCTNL

Question: For `CN1CCC2(O)c3ccccc3NC12` (centres undefined), which inhibition [1] is on record?
Answer: 53.7%

Question: `C=C[C@H]1CO[C@@H]2C[C@H]1C(=O)c1c3[nH]c4ccccc4c3cc[n+]12` was tested. Which IC50 (Acetylcholinesterase) did it give?
Answer: 3.4 µM

Question: For `C=C[C@H]1CO[C@@H]2C[C@H]1Cc1c3[nH]c4ccccc4c3cc[n+]12`, which IC50 (Acetylcholinesterase) is on record?
Answer: 10 µM

Question: Which inhibition [1] does the source give for `CNCCc1c[nH]c2ccccc12` here?
Answer: 49.8%
